Some test systems named below: DLD-1 colon; DMS 273 small cell lung; M19-MEL melanoma; NCI-H460 lung; SK-OV-3 ovarian; SNB-75 CNS; SNB-78 CNS; KM20L2 colon; PC-3 prostate; T-47D breast.
Holding throughout (assay): growth of human tumour cells (NCI), 48 h

Among the data in PubChem BioAssay (NCI) are TGI and GI50 values, retold here.

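A five-concentration, 48-hour dose response in 96-well plates underlies each endpoint, interpolated linearly between surrounding concentrations. Abbreviation: GI50, concentration required for 50% inhibition of growth. The concentration for full growth arrest is given as TGI.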

For `CCOC(=O)/C=C1\Nc2ccccc2C(c2ccccc2)=NC1OC(C)=O` (stereo unspecified), the TGI in the experiment with DLD-1 colon, with DMS 273 small cell lung, with M19-MEL melanoma, in the experiment on NCI-H460 lung, in the experiment with SK-OV-3 ovarian and with SNB-75 CNS was more than 100 µM each time. In the experiment on SNB-78 CNS, this molecule yielded a TGI of more than 100 µM.

Turning to `COC(=O)/C(=N\NC(=O)c1ccccc1O)C(C#N)c1ccc(Cl)cc1` (stereo unspecified), the TGI with DLD-1 colon, with KM20L2 colon, with M19-MEL melanoma, in the experiment on NCI-H460 lung and in the experiment with SNB-78 CNS was more than 100 µM throughout.

For the molecule `CCOP(=O)(OCC)/C(C#N)=C\c1cccc2ccccc12`, the TGI is more than 100 µM with KM20L2 colon; more than 100 µM with M19-MEL melanoma; more than 100 µM with NCI-H460 lung; more than 100 µM in the experiment with PC-3 prostate; more than 100 µM in the experiment on SK-OV-3 ovarian; 88.5 µM in the experiment on SNB-75 CNS. Besides, the TGI in the experiment on SNB-78 CNS and with T-47D breast was more than 100 µM each time.

On to `C/C(=N\NS(=O)(=O)c1ccc(C)cc1)c1ccc[n+]([O-])n1`, for which the TGI in the experiment with DLD-1 colon, in the experiment on DMS 273 small cell lung, with KM20L2 colon, in the experiment with M19-MEL melanoma, in the experiment with NCI-H460 lung and in the experiment on SK-OV-3 ovarian was more than 100 µM each time. Also, in the experiment with SNB-75 CNS, the TGI was more than 100 µM.

Take `COc1cc2ccn3c4cc(OC)c(OC)cc4cc3c2cc1OC`: the TGI with DLD-1 colon, in the experiment with KM20L2 colon, with M19-MEL melanoma, with NCI-H460 lung, in the experiment on SK-OV-3 ovarian and in the experiment with SNB-75 CNS was more than 100 µM in each case. The molecule also gave a TGI in the experiment with SNB-78 CNS of more than 100 µM.

As for `c1ccc2c(c1)CCCc1cc3ccccc3nc1-2`, the TGI in the experiment with DLD-1 colon, in the experiment with KM20L2 colon, in the experiment on M19-MEL melanoma, in the experiment on NCI-H460 lung, in the experiment with SK-OV-3 ovarian and with SNB-75 CNS was more than 100 µM in each case. The molecule also had a TGI with SNB-78 CNS of more than 100 µM.

Take `S=C(Nc1ccccc1)Nc1[nH]c(=S)sc1-c1nc2ccccc2[nH]1`: the TGI in the experiment with DLD-1 colon is more than 100 µM; in the experiment on DMS 273 small cell lung it was more than 100 µM; in the experiment with M19-MEL melanoma, more than 100 µM; in the experiment on SK-OV-3 ovarian, 80.9 µM; in the experiment on SNB-75 CNS, 78.5 µM; with SNB-78 CNS, more than 100 µM.

Take `CCCC/C(=N\N=C(N)N)c1ccc(F)cc1`: the GI50 in the experiment on NCI-H460 lung is 3.9 µM; in the experiment with PC-3 prostate, 2850 nM; in the experiment on SK-OV-3 ovarian it was 2.61 µM; in the experiment with SNB-75 CNS it was 2.36 µM; in the experiment with T-47D breast, 2610 nM. Also, the TGI was determined as 14.7 µM with NCI-H460 lung; 14.3 µM in the experiment with PC-3 prostate; 11 µM with SK-OV-3 ovarian; 12.5 µM in the experiment on SNB-75 CNS; 15.6 µM in the experiment on T-47D breast.

Take `COC(=O)C(CC=O)C(=O)C(=O)Nc1cccc(C(F)(F)F)c1` (stereo unspecified): the TGI with DLD-1 colon, with KM20L2 colon, in the experiment on M19-MEL melanoma, in the experiment with NCI-H460 lung, in the experiment on SK-OV-3 ovarian and with SNB-78 CNS was more than 100 µM in each case.

On to `Cc1ccc(NCSc2ccc(Cl)cc2)cc1`, for which the GI50 with NCI-H460 lung is more than 100 µM; with PC-3 prostate it was 10200 nM; in the experiment with SK-OV-3 ovarian it was 67 µM; in the experiment with SNB-75 CNS, 9.92 µM; in the experiment on T-47D breast, 9550 nM. For the same molecule, the TGI was more than 100 µM with NCI-H460 lung; more than 100 µM with PC-3 prostate; more than 100 µM with SK-OV-3 ovarian; 45.5 µM with SNB-75 CNS; more than 100 µM with T-47D breast.

As to `Clc1ccc2c(Cl)ncnc2c1`, the TGI in the experiment on DLD-1 colon, in the experiment with DMS 273 small cell lung, in the experiment on KM20L2 colon, in the experiment on M19-MEL melanoma, with NCI-H460 lung and with SK-OV-3 ovarian was more than 100 µM each time. The molecule further gave a TGI with SNB-75 CNS of more than 100 µM.

As to `O=C1OC(c2ccc(O)cc2)(c2ccc(O)cc2)c2cccc3cccc1c23`, the GI50 in the experiment on NCI-H460 lung is 17.9 µM; with PC-3 prostate, 11500 nM; in the experiment with SK-OV-3 ovarian, 18.8 µM; in the experiment with SNB-75 CNS, 9.97 µM; with T-47D breast, 118 nM. The TGI with NCI-H460 lung is 39.6 µM; in the experiment with PC-3 prostate, 29 µM; with SK-OV-3 ovarian it was 33.1 µM; in the experiment with SNB-75 CNS, 27.1 µM; in the experiment with T-47D breast it was 12 µM.

Consider `CC(=O)[CH-]C(=O)c1ccccc1.CC(=O)[CH-]C(=O)c1ccccc1.[O]=[U+2]=[O]`, for which the GI50 in the experiment on DLD-1 colon was 29.7 µM; with KM20L2 colon it was 37.1 µM; with M19-MEL melanoma, 28.9 µM; in the experiment on NCI-H460 lung, 36.9 µM; in the experiment with SK-OV-3 ovarian, 68.5 µM; with SNB-75 CNS, 23 µM. For the same molecule, the TGI is more than 100 µM with DLD-1 colon; more than 100 µM in the experiment with KM20L2 colon; more than 100 µM with M19-MEL melanoma; more than 100 µM in the experiment with NCI-H460 lung; more than 100 µM in the experiment with SK-OV-3 ovarian; 98.7 µM in the experiment with SNB-75 CNS.

As for `COC(=O)C12CC(C3CC31)C1CC12` (stereo unspecified), the TGI in the experiment on DLD-1 colon, with DMS 273 small cell lung, in the experiment on KM20L2 colon, in the experiment on M19-MEL melanoma, in the experiment with NCI-H460 lung and in the experiment on SK-OV-3 ovarian was more than 100 µM each time.

Regarding `CC1(CC(=O)O)OC2CCCCCC2O1` (stereo unspecified) (tested in a mixture with another compound), the TGI in the experiment with NCI-H460 lung, in the experiment on PC-3 prostate, in the experiment with SK-OV-3 ovarian, with SNB-75 CNS and in the experiment on T-47D breast was more than 100 µM throughout.

Consider `Cc1nn(-c2ccccc2)c2c1C1C(=C(c3ccc(Cl)cc3)N2)C(=O)Nc2ccccc21` (stereo unspecified), for which the GI50 in the experiment on NCI-H460 lung was 3.17 µM; in the experiment on PC-3 prostate, 2650 nM; in the experiment with SK-OV-3 ovarian, 6.43 µM; with SNB-75 CNS it was 3.9 µM; in the experiment on T-47D breast it was 4330 nM. Besides, the TGI in the experiment on NCI-H460 lung is 10.2 µM; with PC-3 prostate, 13.1 µM; with SK-OV-3 ovarian it was more than 100 µM; in the experiment with SNB-75 CNS, 96.3 µM; with T-47D breast it was 38.5 µM.

Consider `COC(=O)/C(C#N)=C1\N=NNN1CCCN1CCOCC1`, for which the TGI in the experiment with DLD-1 colon, in the experiment with DMS 273 small cell lung, in the experiment with M19-MEL melanoma, in the experiment with NCI-H460 lung, in the experiment on SK-OV-3 ovarian and with SNB-75 CNS was more than 100 µM in each case. This molecule yielded a TGI in the experiment on SNB-78 CNS of more than 100 µM.

For the molecule `O=c1[nH]c(=O)n(C2CC(O)C(CO)O2)cc1C#Cc1ccc(C(F)(F)F)cc1` (stereo unspecified), the TGI in the experiment on DLD-1 colon, in the experiment with DMS 273 small cell lung, in the experiment on KM20L2 colon, with NCI-H460 lung, in the experiment with SK-OV-3 ovarian and in the experiment with SNB-75 CNS was more than 100 µM in each case.

For the molecule `O=C(Cc1nc2ccc(C(=O)c3ccccc3)cc2[nH]c1=O)C(=O)Nc1ccccc1[N+](=O)[O-]`, the TGI in the experiment on NCI-H460 lung, with PC-3 prostate, in the experiment on SK-OV-3 ovarian, in the experiment on SNB-75 CNS and with T-47D breast was more than 100 µM in each case.

Take `CCCCCCCCCCCCCCCC[N+]1(CC)CCCC1`: the GI50 with NCI-H460 lung is 0.437 µM; in the experiment with PC-3 prostate, 284 nM; in the experiment on SK-OV-3 ovarian, 1.02 µM; with SNB-75 CNS, 0.247 µM; with T-47D breast, 528 nM. The TGI came out at 1.62 µM in the experiment with NCI-H460 lung; 1.15 µM in the experiment with PC-3 prostate; 3.05 µM in the experiment on SK-OV-3 ovarian; 1.11 µM in the experiment with SNB-75 CNS; 3.93 µM in the experiment on T-47D breast.

Take `O=C(N[C@@H]1CCCc2ccccc21)[C@H](CCC(=O)N1CCN(C2CCCCC2)CC1)N1C(=O)[C@@H](N2C(=O)OC[C@@H]2c2ccccc2)[C@H]1/C=C/c1ccccc1`: the GI50 in the experiment on NCI-H460 lung is 2.65 µM; in the experiment on PC-3 prostate it was 2320 nM; in the experiment with SK-OV-3 ovarian, 3.02 µM; in the experiment on SNB-75 CNS, 1.32 µM; in the experiment on T-47D breast it was 2980 nM. The TGI in the experiment on NCI-H460 lung was determined as 7.23 µM; with PC-3 prostate it was 8.35 µM; in the experiment with SK-OV-3 ovarian it was 14 µM; in the experiment with SNB-75 CNS, 4.19 µM; with T-47D breast it was 14.6 µM.

For the molecule `O=C(OCc1ccccc1CN1CCOCC1)c1ccc(Br)cc1`, the TGI in the experiment with NCI-H460 lung, with PC-3 prostate, in the experiment on SK-OV-3 ovarian, in the experiment with SNB-75 CNS and in the experiment with T-47D breast was more than 100 µM each time.

Regarding `CC1(C)N=C(N)N=C(N)N1c1ccc(OCC(=O)Nc2cccc(S(=O)(=O)F)c2)c(Cl)c1`, the TGI is more than 100 µM in the experiment on NCI-H460 lung; more than 76.6 µM in the experiment with PC-3 prostate; more than 100 µM with SK-OV-3 ovarian; more than 100 µM with SNB-75 CNS; more than 100 µM in the experiment on T-47D breast.

For `COC(=O)[C@H](Cc1ccccc1)NC(=O)c1csc([C@@H](C[C@H](C(C)C)N(C)C(=O)[C@@H](NC(=O)[C@H]2CCCCN2C)C2CC2)OC(C)=O)n1`, the GI50 is 0.0546 µM with NCI-H460 lung; 50.9 nM in the experiment on PC-3 prostate; 0.121 µM in the experiment with SK-OV-3 ovarian; 0.0257 µM in the experiment with SNB-75 CNS; more than 25000 nM in the experiment on T-47D breast. Besides, the TGI in the experiment on NCI-H460 lung, in the experiment on PC-3 prostate, in the experiment on SK-OV-3 ovarian, in the experiment with SNB-75 CNS and in the experiment with T-47D breast was more than 25 µM in each case.

For the molecule `CO[C@H]1C=C[C@]23c4cc5c(cc4CN(CC2O)[C@@H]3C1)OCO5` (stereo partly specified), the TGI in the experiment on NCI-H460 lung is 36.1 µM; in the experiment on PC-3 prostate, 18.6 µM; in the experiment on SK-OV-3 ovarian, 3.3 µM; with SNB-75 CNS, 30.4 µM; in the experiment on T-47D breast it was 18.2 µM.
